Measurements from patent US6787566B2, “Breakers of advanced glycation endproducts” (City of Hope, priority 1999, dated 2004).
Entries after “also recorded” stand apart in the source; their conditions may differ.

Key:
Assay type in all cases: biochemical
[1] = target: T1, cross-linked collagen-AGE-BSA (Rattus norvegicus, UniProt P02454+P02466); assay: AGE-BSA-collagen ELISA: cleavage of glycated BSA cross-linked to collagen; details: for Concentration dependence of AGE-BSA-collagen crosslink breaking, in words: FIGS. 1A-C; for Overall AGE-breaking property, in words: overall judgement of the patent's tests; for AGE-breaking activity (cleavage of cross-linked collagen-AGE-BSA), in words: 0.1-10 mM final concentration, FIGS. 1A and 1C
T1 construct: purchased Biocoat (Collaborative Research, Bedford, Mass.) for the collagen-coated plates; Sigma Chemical co. for bovine serum albumin
T1 sequence (P02454 152-1207 limits assumed): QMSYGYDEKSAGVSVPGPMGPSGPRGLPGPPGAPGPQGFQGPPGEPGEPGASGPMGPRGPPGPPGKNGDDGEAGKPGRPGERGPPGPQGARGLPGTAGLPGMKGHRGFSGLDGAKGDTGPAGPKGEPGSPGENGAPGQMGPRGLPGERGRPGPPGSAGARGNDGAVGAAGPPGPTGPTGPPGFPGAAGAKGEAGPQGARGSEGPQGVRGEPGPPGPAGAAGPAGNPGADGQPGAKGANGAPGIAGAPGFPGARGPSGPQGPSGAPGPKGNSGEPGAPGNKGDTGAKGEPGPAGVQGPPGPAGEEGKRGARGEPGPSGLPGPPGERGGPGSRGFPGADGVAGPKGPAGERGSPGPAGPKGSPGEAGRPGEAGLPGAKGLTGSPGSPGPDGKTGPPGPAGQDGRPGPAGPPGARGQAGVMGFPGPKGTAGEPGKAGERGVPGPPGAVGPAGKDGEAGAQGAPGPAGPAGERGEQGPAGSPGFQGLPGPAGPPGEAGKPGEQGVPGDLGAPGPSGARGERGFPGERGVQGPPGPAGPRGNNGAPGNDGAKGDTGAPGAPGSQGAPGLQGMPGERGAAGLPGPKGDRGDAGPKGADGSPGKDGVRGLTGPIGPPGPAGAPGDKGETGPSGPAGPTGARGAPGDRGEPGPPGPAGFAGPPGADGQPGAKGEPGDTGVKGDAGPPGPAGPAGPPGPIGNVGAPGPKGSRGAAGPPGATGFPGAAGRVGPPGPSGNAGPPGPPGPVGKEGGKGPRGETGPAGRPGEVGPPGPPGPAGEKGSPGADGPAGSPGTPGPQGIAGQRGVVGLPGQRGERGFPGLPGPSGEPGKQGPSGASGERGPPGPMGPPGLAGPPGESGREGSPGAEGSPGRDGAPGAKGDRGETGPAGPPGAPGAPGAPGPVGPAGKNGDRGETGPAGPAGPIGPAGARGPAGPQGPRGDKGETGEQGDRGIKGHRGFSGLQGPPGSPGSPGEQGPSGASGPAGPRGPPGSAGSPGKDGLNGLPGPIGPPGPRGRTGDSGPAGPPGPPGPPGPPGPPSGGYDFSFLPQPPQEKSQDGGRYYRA
T1 sequence (P02466 86-1125 limits assumed): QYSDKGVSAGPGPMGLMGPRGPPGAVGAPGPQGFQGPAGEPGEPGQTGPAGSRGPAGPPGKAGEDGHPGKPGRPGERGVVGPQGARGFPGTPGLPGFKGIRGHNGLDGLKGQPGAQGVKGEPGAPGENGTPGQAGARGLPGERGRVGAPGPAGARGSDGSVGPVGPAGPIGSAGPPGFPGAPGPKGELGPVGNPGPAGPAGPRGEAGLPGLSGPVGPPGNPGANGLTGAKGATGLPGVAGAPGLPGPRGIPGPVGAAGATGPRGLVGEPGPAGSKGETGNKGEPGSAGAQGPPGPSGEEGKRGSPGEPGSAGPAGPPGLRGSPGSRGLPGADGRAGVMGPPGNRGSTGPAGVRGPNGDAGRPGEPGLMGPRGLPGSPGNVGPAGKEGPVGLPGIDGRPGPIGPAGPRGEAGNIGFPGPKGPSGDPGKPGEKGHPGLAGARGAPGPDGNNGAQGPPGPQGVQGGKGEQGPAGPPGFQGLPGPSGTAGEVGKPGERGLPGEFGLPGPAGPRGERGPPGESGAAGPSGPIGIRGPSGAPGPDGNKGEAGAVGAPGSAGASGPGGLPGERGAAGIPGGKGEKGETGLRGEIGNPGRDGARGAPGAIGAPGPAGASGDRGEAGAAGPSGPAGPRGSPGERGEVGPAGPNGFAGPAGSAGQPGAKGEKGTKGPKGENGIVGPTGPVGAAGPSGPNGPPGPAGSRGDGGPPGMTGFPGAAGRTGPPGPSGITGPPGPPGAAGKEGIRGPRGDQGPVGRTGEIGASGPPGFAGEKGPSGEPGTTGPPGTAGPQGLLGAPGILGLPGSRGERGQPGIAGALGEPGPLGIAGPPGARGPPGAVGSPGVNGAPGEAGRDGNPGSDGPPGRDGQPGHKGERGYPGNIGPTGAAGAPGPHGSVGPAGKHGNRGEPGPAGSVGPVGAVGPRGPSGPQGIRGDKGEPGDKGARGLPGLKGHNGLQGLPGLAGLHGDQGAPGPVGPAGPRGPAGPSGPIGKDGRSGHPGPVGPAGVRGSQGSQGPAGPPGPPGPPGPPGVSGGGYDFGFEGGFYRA
Protocol: In vitro evaluation of the ability of the AGE-breaker compounds to cleave and break cross-linking of glycated BSA (AGE-BSA) (prepared as described (Rahbar et al., 1999)) to the rat-tail-tendon-collagen was by a special ELISA (Vasan et al., 1996). The rat-tail-tendon-collagen coated plates were first blocked first with 300 μL of Superblock blocking buffer (Pierce Chemicals, Rockford, Ill.) for one hour. The blocking solution was removed from the wells by washing the plates twice with PBS-0.05% Tween 20 (PBS-T) using a Dynatech ELISA-plate washer. Cross-linking of various concentrations of AGE-BSA (0, 0.01, 0.05, 0.1, 0.25, 0.50, and 1.0 μg per well) to rat-tail-collagen coated plates was performed without the testing compound, and the plates were incubated for 5 hours at 37° C. After washing the wells three times with PBS-T to remove the unattached AGE-BSA, test concentrations of the compound (50 μL/well) dissolved in PBS were added to wells in triplicate and incubation continued at 37° C. overnight. After washing with PBS-T, the amount of BSA remaining attached to the tail collagen plate was then quantified by addition of rabbit anti-BSA polyclonal antibodies (50 μL/well) for 1 hour at 37° C. The wells were then washed three times with PBS-T and developed with the chromogenic substrate ABTS (100 μL/well). Absorbance was measured at 410 nm in microplate reader (BioRad, Hercules, Calif.).
The percentage breaking activity is calculated by the following formula: 100×[(A410, PBS control)−(A410, AGE-breaker compound)]/[A410, PBS control].

[2] = target: T2, AGE cross-links in tail tendon collagen of diabetic rats (Rattus norvegicus, UniProt P02454+P02466); assay: Tendon collagen solubility in weak acid after in vitro treatment; details: for Acid Solubility Test (% increase in solubility): relative to untreated collagen of diabetic rats
T2 construct: collagen was isolated from the tail tendon of diabetic and normal controls; from tissue; host or cells: tail tendon of streptozotocin-diabetic male Sprague-Dawley rats
T2 sequence (P02454 152-1207 limits assumed): as the sequence (P02454 152-1207 limits assumed) above
T2 sequence (P02466 86-1125 limits assumed): as the sequence (P02466 86-1125 limits assumed) above
Protocol: For this study, diabetes was first induced in male Sprague-Dawley rats (Charles River, Wilmington, Mass.) weighing about 150-175 g by injection of streptozotocin (65 mg/kg, i.p.). […] Tail tendons were dissected free of adhering tissues, washed thoroughly in PBS containing protease inhibitors (1 mM each of EDTA, PMSF, iodoacetamide and benzamidine hydrochloride), patted dry onto a paper towel, rolled into a ball, freeze dried, and stored at −20° C. in sealed containers until used.
Representative samples of tail tendon collagen were pulled from its bulk and were cut approximately 20-25 mm in size. The samples were then placed inside 1.5 mL microfuge tubes and suspended with 1 mL of the desired concentration of the AGE-breaker compound in PBS buffer (pH 7.4) containing 0.02 g/L NaN3. Untreated control tubes include tail tendon collagen and PBS buffer only. The tubes were incubated at 37° C. for 24 hours. After incubation, the tubes were centrifuged at 10,000 rpm and the supernatants discarded. The collagen samples were rinsed with PBS, vortexed thoroughly, centrifuged briefly, and the supernatant discarded. This rinsing was repeated twice. On final rinse, the supernatant was discarded and the tubes inverted for one minute for the samples to air dry. These collagen samples were used immediately in the acid solubility and digestion studies.
For determination of the amount of acid-insoluble collagen in samples treated and untreated with the AGE-breaker compound, 5 mg aliquots of dried tail-tendon collagen from diabetic and non-diabetic rats, all in duplicates, were added to 2 mL of 0.05 M acetic acid and stirred at 4° C. for 24 hours. The mixture was homogenized in a polytron homogenizer and stirred for an additional 24 hours at 4° C. The suspension was then centrifuged at 9000×g for 60 minutes at 4° C. The collagen in the clear supernatant was defined as the acid soluble collagen, and the gel-like pellet as the acid insoluble collagen.

[3] = target: T2, AGE cross-links in tail tendon collagen of diabetic rats; assay: Papain digestibility assay, collagen-linked fluorescence; details: for Papain digestion Assay (% decrease in fluorescence): relative to untreated collagen of diabetic rats
Protocol: For this study, diabetes was first induced in male Sprague-Dawley rats (Charles River, Wilmington, Mass.) weighing about 150-175 g by injection of streptozotocin (65 mg/kg, i.p.). […] Thirty-two weeks later, the rats are sacrificed and collagen was isolated from the tail tendon of diabetic and normal controls as described by Kochakian et al. (1996). Tail tendons were dissected free of adhering tissues, washed thoroughly in PBS containing protease inhibitors (1 mM each of EDTA, PMSF, iodoacetamide and benzamidine hydrochloride), patted dry onto a paper towel, rolled into a ball, freeze dried, and stored at -20° C. in sealed containers until used. Representative samples of tail tendon collagen were pulled from its bulk and were cut approximately 20-25 mm in size. […] Untreated control tubes include tail tendon collagen and PBS buffer only. The tubes were incubated at 37° C. for 24 hours. After incubation, the tubes were centrifuged at 10,000 rpm and the supernatants discarded. The collagen samples were rinsed with PBS, vortexed thoroughly, centrifuged briefly, and the supernatant discarded. This rinsing was repeated twice. On final rinse, the supernatant was discarded and the tubes inverted for one minute for the samples to air dry. These collagen samples were used immediately in the acid solubility and digestion studies. […] Digests were centrifuged at 10,000 rpm for 60 minutes at 4° C., and the supernatant separated from the pellet. […] Aliquots of the supernatant digests were also subjected to acid hydrolysis followed by hydroxyproline measurements. The results were expressed as fluorescence units per micromole of hydroxyproline content of each sample. Percent decrease in fluorescence was calculated as above. […] The tubes were autoclaved in a steam sterilizer at 250° F. for 3.5 hours. The samples were taken to dryness using a Savant Speed Vac concentrator with heat, and stored at 4° C. until assayed. The dried samples were rehydrated with 200 μL deionized water, and aliquots were assayed for their hydroxyproline content in a 96-well microtiter plate as described by […] et al. (1997).

[4] = target: T2, AGE cross-links in tail tendon collagen of diabetic rats; assay: Total pepsin digestion assay, collagen-linked fluorescence; details: for Pepsin Digestion Assay (% decrease in fluorescence): relative to untreated collagen of diabetic rats
Protocol: For this study, diabetes was first induced in male Sprague-Dawley rats (Charles River, Wilmington, Mass.) weighing about 150-175 g by injection of streptozotocin (65 mg/kg, i.p.). […] Thirty-two weeks later, the rats are sacrificed and collagen was isolated from the tail tendon of diabetic and normal controls as described by Kochakian et al. (1996). Tail tendons were dissected free of adhering tissues, washed thoroughly in PBS containing protease inhibitors (1 mM each of EDTA, PMSF, iodoacetamide and benzamidine hydrochloride), patted dry onto a paper towel, rolled into a ball, freeze dried, and stored at -20° C. in sealed containers until used. Representative samples of tail tendon collagen were pulled from its bulk and were cut approximately 20-25 mm in size. […] Untreated control tubes include tail tendon collagen and PBS buffer only. The tubes were incubated at 37° C. for 24 hours. After incubation, the tubes were centrifuged at 10,000 rpm and the supernatants discarded. The collagen samples were rinsed with PBS, vortexed thoroughly, centrifuged briefly, and the supernatant discarded. This rinsing was repeated twice. On final rinse, the supernatant was discarded and the tubes inverted for one minute for the samples to air dry. These collagen samples were used immediately in the acid solubility and digestion studies. […] The clear supernatant containing digested collagen was collected and used for collagen-linked fluorescence. […] Fluorescence of the samples was quantified at 365 nm excitation and 418 nm emission. All fluorescence values were corrected for fluorescence of the pepsin in phosphate buffer and expressed as arbitrary units per micromoles of hydroxyproline content of the collagen sample. The hydroxyproline content of each collagen sample was measured following acid hydrolysis, using a microassay method as described ([…] et al., 1997). […] The tubes were autoclaved in a steam sterilizer at 250° F. for 3.5 hours. The samples were taken to dryness using a Savant Speed Vac concentrator with heat, and stored at 4° C. until assayed. The dried samples were rehydrated with 200 μL deionized water, and aliquots were assayed for their hydroxyproline content in a 96-well microtiter plate as described by […] et al. (1997).

Overall AGE-breaking property, in words [1]	Overall AGE-breaking property, in words ([1]; listed as metformin)	Collagen solubility in weak acid, in words ([2]; collagen of diabetic rats, P<0.05 for LR23, FIG. 2B)	AGE-linked fluorescence of collagen after papain digestion, in words ([3]; collagen of diabetic rats, P<0.05 for LR23, FIG. 4B)	AGE-linked fluorescence of collagen after pepsin digestion, in words ([4]; collagen of diabetic rats, P<0.05 for LR23, FIG. 3B)	Compound	Concentration dependence of AGE-BSA-collagen crosslink breaking, in words [1]	AGE-breaking activity (cleavage of cross-linked collagen-AGE-BSA), in words [1]	Acid Solubility Test (% increase in solubility) ([2]; 0.1 mM) [%]	Acid Solubility Test (% increase in solubility) ([2]; 1.0 mM) [%]	Acid Solubility Test (% increase in solubility) ([2]; 10 mM) [%]	Papain digestion Assay (% decrease in fluorescence) ([3]; 0.1 mM) [%]	Papain digestion Assay (% decrease in fluorescence) ([3]; 1.0 mM) [%]	Papain digestion Assay (% decrease in fluorescence) ([3]; 10 mM) [%]	Pepsin Digestion Assay (% decrease in fluorescence) ([4]; 0.1 mM) [%]	Pepsin Digestion Assay (% decrease in fluorescence) ([4]; 1.0 mM) [%]	Pepsin Digestion Assay (% decrease in fluorescence) ([4]; 10 mM) [%]
moderate AGE-breaking properties	moderate AGE-breaker				CN(C)C(=N)NC(=N)N [Metformin, 1,1-dimethylbiguanide, reference compound]	more potent at lower concentrations; also recorded: highly effective at low concentrations										
most effective AGE-breakers		significantly increased solubility	reduced the AGE-linked fluorescence	reduced the AGE-linked fluorescence	CC(C)(Oc1ccc(NC(=O)Nc2cc(Cl)cc(Cl)c2)cc1)C(=O)NC1(C(=O)O)CCCCC1 [LR23, 4-(3,5-dichlorophenylureido)phenoxyisobutyryl-1-amidocyclohexane-1-carboxylic acid]	more effective breakers at higher concentrations	very effective AGE-breakers	18.3	19.4	32.7	16.7	25.9	47.2	7.3	15.5	18.7
					L-bis-[4-(4-chlorobenzamidophenoxyisobutyryl)cystine] [LR20]	more effective breakers at higher concentrations	very effective AGE-breakers	1.5	7.3	24.0	18.3	18.4	24.3	7.1	8.9	27.8
					4-[(3,5-dichlorophenylureidophenoxyisobutyryl]-4-aminobenzoic acid [LR99]		very effective AGE-breakers	1.6	7.3	16.0	23.5	35.9	63.6	9.8	16.1	12.6
